From patent publication US12239650B2, “Compounds for treating and preventing net associated complications” (The Australian National University, priority 2019, dated 2025)

Key:
[1] = test system: histone-induced Ca2+ flux by HMEC-1; test: Calcium flux in endothelial cells (Indo-1 flow cytometry); type: cell-based, human; settings: compounds 100 μg ml^−1, histones 100 μg ml^−1, FIG. 5c
Description: Calcium flux studies in endothelial cells. HMEC-1 (2×10^7 ml^−1) in RPMI-1640 medium were incubated with Indo-1 AM (5 μM) (ThermoFisher) (Tellam, R. L. & Parish, C. R. The effect of sulfated polysaccharides on the free intracellular calcium ion concentration of lymphocytes. Biochim Biophys Acta 930, 55-64 (1987); and Weston, S. A., Tellam, R. L. & Parish, C. R. Dextran sulfate induces changes in the free intracellular calcium ion concentration of a subpopulation of immature thymocytes. Immunol Cell Biol 69, 369-376 (1991)) at 37° C. for 60 min. After 3 washes with RPMI-1640 medium supplemented with 5% FCS the cells were resuspended at 4×10^6 ml^−1 in ice-chilled HEPES-buffered saline (NaCl 8 g l^−1, KCl 0.4 g l^−1, CaCl2 0.2 g l^−1, MgCl2·6H2O 0.2 g l^−1, D-glucose 1.8 g l^−1, pH 7.4) supplemented with 10 mM HEPES. […] Intracellular Ca^2+ flux was monitored using flow cytometry. […] After the exclusion of cellular debris and clumped cells (on the basis of FSC/SSC light scattering) the basal Ca^2+ level was monitored for 2 min before histone addition in the presence/absence of novel compounds. Ca^2+ levels were measured at 1, 3 and 9 min post-histone addition with a constant flow rate (˜300 events/sec). Ca^2+ flux was determined as an increase in the ratio of geometric mean fluorescence intensity (GMFI) of Ca^2+-bound over Ca^2+-unbound Indo-1.

[2] = test system: histone-induced platelet aggregation; test: Histone-induced aggregation of isolated platelets; type: cell-based, human; settings: FIG. 4b; for Inhibition of histone-induced platelet aggregation: histones 150 μg/mL, isolated platelets
Description: In vitro platelet aggregation and degranulation assays. For aggregation studies platelets were isolated from human whole blood collected into Na-citrate vacutainers through 2-step centrifugation at room temperature (200×g for 20 min then the platelet-rich plasma 800×g for 15 min), the platelet pellet resuspended in Hank's balanced salt solution containing calcium and magnesium and histones added and incubated in the presence/absence of compounds at the concentrations of each as indicated. Samples were assessed for degree of platelet aggregation after 15 min exposure to histones by flow cytometry using the characteristic log FSC versus log SSC identification of platelets, with increases in the geometric mean of log FSC indicative of platelet aggregation.

[3] = Rat cardiac ischemia reperfusion injury model; type: in vivo; settings: rats, 30 mg kg^−1 into left ventricle 5 min prior to reperfusion, FIG. 7c
Text: Rat cardiac ischemia reperfusion injury model. The method used is based on a combination of previously published procedures (Takada, Y., Hashimoto, M., Kasahara, J., Aihara, K. & Fukunaga, K. Cytoprotective effect of sodium orthovanadate on ischemia/reperfusion-induced injury in the rat heart involves Akt activation and inhibition of fodrin breakdown and apoptosis. J Pharmacol Exp Ther 311, 1249-1255 (2004); and Hale, S. L., Dae, M. W. & Kloner, R. A. Hypothermia during reperfusion limits ‘no-reflow’ injury in a rabbit model of acute myocardial infarction. Cardiovasc Res 59, 715-722 (2003)). Male Wistar rats were anaesthetized with isofluorane, intubated via tracheostomy and ventilated with a tidal volume of 1 ml 150 g^−1 and a respiratory rate of 65 breaths min^−1. Supplemental oxygen was delivered at a FiO2 of ˜30%. […]
At the conclusion of reperfusion (30 min), Thioflavin S (1 ml 200 g^−1 of body weight) was slowly injected into the lumen of the left ventricle, to define the territory of microvascular obstruction (MVO) within the ischemic zone (IZ). The IZ territory was determined by the re-occlusion of the atraumatic snare and infusion of blue microspheres into the left ventricle (Unisperse Blue, BASF), distributed within solutions via ultrasonication using a CD-6800 (Unisonics) sonicator. […] Planimetry (Image J, Freeware) was used to quantify the areas of the IZ, MVO and necrosis.

Question: With O=S(=O)(O)OC[C@H]1O[C@@H](O[C@H]2[C@H](OS(=O)(=O)O)[C@@H](OS(=O)(=O)O)C(OS(=O)(=O)O)O[C@@H]2COS(=O)(=O)O)[C@H](OS(=O)(=O)O)[C@@H](OS(=O)(=O)O)[C@@H]1OS(=O)(=O)O (stereo partly shown) [CBS, cellobiose per-O-sulfate] as the molecule, how does the “Effect on histone-induced Ca2+ response” value [1] read?
Answer: The value was “substantially inhibited”.

Question: And the “Inhibition of histone-induced platelet aggregation” value [2]?
Answer: The value was “completely inhibited”.

Question: And the “Reduction of area of microvascular obstruction and myocardial necrosis in the ischemic zone” value [3]?
Answer: Its value is 50%.

Question: Which results are given for O=S(=O)(O)OC[C@H]1O[C@H](O[C@H]2[C@H](OS(=O)(=O)O)[C@@H](OS(=O)(=O)O)C(OS(=O)(=O)O)O[C@@H]2COS(=O)(=O)O)[C@H](OS(=O)(=O)O)[C@@H](OS(=O)(=O)O)[C@@H]1O[C@H]1O[C@H](COS(=O)(=O)O)[C@@H](OS(=O)(=O)O)[C@H](OS(=O)(=O)O)[C@H]1OS(=O)(=O)O (stereo partly shown) [MTS, maltotriose per-O-sulfate]?
Answer: Effect on histone-induced Ca2+ response [1]: totally ablated; Relative activity in inhibiting histone-induced platelet aggregation [2]: most active; Inhibition of histone-induced platelet aggregation [2]: completely inhibited; Reduction of area of microvascular obstruction and myocardial necrosis in the ischemic zone [3]: totally ineffectual
